According to patent US11584749B2, “Phosphor-tetrazine compound and use thereof” (Spark Biopharma, Inc., priority 2018, dated 2023):

Legend:
[1] = Change in emission properties (quantum yield, excitation/emission maxima, fluorescence amplification) before and after reaction with TCO; type: physicochemical; settings: for fluorescence amplification rate (on/off): before and after reaction with TCO; for fluorescence signal amplification efficiency after the reaction with TCO: long wavelength range, diethylamino group at R1
Description: (§1) In this test, the absorption spectrum was measured with a UV-VIS spectrophotometer UV-1650PC (Shimadzu), and the emission spectrum and motion data were measured using a Cary Eclipse Fluorescence spectrophotometer (Varian Associates), and the absolute quantum yield was measured with a QE-2000 (Otsuka Electronics).
The emission spectrum was compared when the maximum fluorescence intensity was reached before and after the reaction of the compound and TCO, and changes in fluorescence of the compounds of Examples 1 to 4 and Comparative Examples 1 to 4 were observed, and the results are shown in Table 1 below.
The emission spectrum was compared when the maximum fluorescence intensity was reached before and after the reaction of the compound and TCO, and changes in fluorescence of the compounds of Examples 1 and 4 and Comparative Examples 3 to 6 were observed, and the results are shown in Table 2 below, FIGS. 3 and 4.

[2] = Second rate constant of the reaction with TCO; type: physicochemical
Description: as §1

With CC(=O)c1ccn2c3c(c(-c4ccc(-c5nnc(C)nn5)cc4)c2c1)CN(CCCNC(=O)OC(C)(C)C)C3=O [Comparative Example 1, tert-butyl (3-(7-acetyl-9-(4-(6-methyl-1,2,4,5-tetrazin-3-yl)phenyl)-3-oxo-1,3-dihydro-2H-pyrrolo[3,4-b]indolizin-2-yl)propyl)carbamate] as the compound, how does the “λem maximum emission wavelength” value ([1]; Table 1) read?
Its value is 532 nm.

What about the “λex largest excitation maxima at a given maximum emission wavelength” value (“λex largest excitation maxima” below) ([1]; Table 1) of the same compound?
The value was 416 nm.

What about the “Φon absolute quantum yield after the reaction with TCO” value (shortened to “Φon absolute quantum yield”) ([1]; Table 1) of the same compound?
The value was 0.168.

And the “fluorescence amplification rate (on/off)” value ([1]; Table 1)?
Its value is 20.

What about the “Φoff absolute quantum yield before the reaction with TCO” value ([1]; Table 1) of the same compound?
The value was 0.011.

And the “K2 second rate constant value” ([2]; Table 1, measured at 20° C.)?
Its value is 21 m^−1s^−1.

Which results are given for CC(=O)c1ccn2c3c(c(-c4ccc(C(=O)NCc5ccc(-c6nnc(C)nn6)cc5)cc4)c2c1)CN(CCCNC(=O)OC(C)(C)C)C3=O [Comparative Example 2, tert-butyl (3-(7-acetyl-9-(4-((4-(6-methyl-1,2,4,5-tetrazin-3-yl)benzyl)carbamoyl)phenyl)-3-oxo-1,3-dihydro-2H-pyrrolo[3,4-b]indolizin-2-yl)propyl)carbamate]?
λem maximum emission wavelength ([1]; Table 1): 522 nm; λex largest excitation maxima at a given maximum emission wavelength ([1]; Table 1): 401 nm; Φon absolute quantum yield after the reaction with TCO ([1]; Table 1): 0.583; fluorescence amplification rate (on/off) ([1]; Table 1): 14; Φoff absolute quantum yield before the reaction with TCO ([1]; Table 1): 0.042; K2 second rate constant value ([2]; Table 1, measured at 20° C.): 15 m^−1s^−1

Which results are given for Cc1nnc(-c2ccc(CNC(=O)c3ccn4c5c(c(-c6ccccc6)c4c3)CN(CCCNC(=O)OC(C)(C)C)C5=O)cc2)nn1 [Comparative Example 3, tert-butyl (3-(7-((4-(6-methyl-1,2,4,5-tetrazin-3-yl)benzyl)carbamoyl)-3-oxo-9-phenyl-1,3-dihydro-2H-pyrrolo[3,4-b]indolizin-2-yl)propyl)carbamate]?
λem maximum emission wavelength ([1]; Table 1): 493 nm; λex largest excitation maxima at a given maximum emission wavelength ([1]; Table 1): 375 nm; Φon absolute quantum yield after the reaction with TCO ([1]; Table 1): 0.616; fluorescence amplification rate (on/off) ([1]; Table 1): 67; Φoff absolute quantum yield before the reaction with TCO ([1]; Table 1): 0.012; λem maximum emission wavelength ([1]; Table 2): 493 nm; λex largest excitation maxima at a given maximum emission wavelength ([1]; Table 2): 375 nm; Φon absolute quantum yield after the reaction with TCO ([1]; Table 2): 0.616; fluorescence amplification rate (on/off) ([1]; Table 2): 67; Φoff absolute quantum yield before the reaction with TCO ([1]; Table 2): 0.012; K2 second rate constant value ([2]; Table 1, measured at 20° C.): 15 m^−1s^−1; K2 second rate constant value ([2]; Table 2, measured at 20° C.): 15 m^−1s^−1

Which “λem maximum emission wavelength” value ([1]; Table 1) does the source give for CC(=O)c1ccn2c3c(c(-c4ccccc4)c2c1)CN(CCCNC(=O)CCC(=O)NCc1ccc(-c2nnc(C)nn2)cc1)C3=O [Comparative Example 4, N^1-(3-(7-acetyl-3-oxo-9-phenyl-1,3-dihydro-2H-pyrrolo[3,4-b]indolizin-2-yl)propyl)-N^4-(4-(6-methyl-1,2,4,5-tetrazin-3-yl)benzyl)succinimide] here?
The value was 530 nm.

And the “λex largest excitation maxima” value ([1]; Table 1)?
Its value is 401 nm.

What about the “Φon absolute quantum yield” value ([1]; Table 1) of the same compound?
Its value is 0.325.

And the “fluorescence amplification rate (on/off)” value ([1]; Table 1)?
Its value is 24.

And the “Φoff absolute quantum yield before the reaction with TCO” value ([1]; Table 1)?
The value was 0.017.

What about the “λem maximum emission wavelength” value ([1]; Table 2) of the same compound?
The value was 530 nm.

What about the “λex largest excitation maxima” value ([1]; Table 2) of the same compound?
The value was 401 nm.

What about the “Φon absolute quantum yield” value ([1]; Table 2) of the same compound?
The value was 0.325.

And the “fluorescence amplification rate (on/off)” value ([1]; Table 2)?
Its value is 24.

And the “Φoff absolute quantum yield before the reaction with TCO” value ([1]; Table 2)?
Its value is 0.017.

What about the “K2 second rate constant value” ([2]; Table 1, measured at 20° C.) of the same compound?
The value was 8.5 m^−1s^−1.

What about the “K2 second rate constant value” ([2]; Table 2, measured at 20° C.) of the same compound?
Its value is 8.5 m^−1s^−1.

With CCN(CC)c1ccc(-c2c3c(n4ccc(C(=O)NCc5ccc(-c6nnc(C)nn6)cc5)cc24)C(=O)N(CCCNC(=O)OC(C)(C)C)C3)cc1 [Comparative Example 5, tert-butyl (3-(9-(4-(diethylamino)phenyl)-7-((4-(6-methyl-1,2,4,5-tetrazin-3-yl)benzyl)carbamoyl)-3-oxo-1,3-dihydro-2H-pyrrolo[3,4-b]indolizin-2-yl)propyl)carbamate] as the compound, how does the “λem maximum emission wavelength” value ([1]; Table 2) read?
Its value is 608 nm.

And the “λex largest excitation maxima” value ([1]; Table 2)?
The value was 418 nm.

And the “Φon absolute quantum yield” value ([1]; Table 2)?
The value was 0.016.

What about the “fluorescence amplification rate (on/off)” value ([1]; Table 2) of the same compound?
The value was 30.

What about the “Φoff absolute quantum yield before the reaction with TCO” value ([1]; Table 2) of the same compound?
The value was 0.005.

What about the “fluorescence signal amplification efficiency after the reaction with TCO” value ([1]; Table 2) of the same compound?
Its value is “significantly reduced”.

And the “K2 second rate constant value” ([2]; Table 2, measured at 20° C.)?
The value was 15 m^−1s^−1.

For CCN(CC)c1ccc(-c2c3c(n4ccc(C(C)=O)cc24)C(=O)N(CCCNC(=O)CCC(=O)NCc2ccc(-c4nnc(C)nn4)cc2)C3)cc1 [Comparative Example 6, N^1-(3-(7-acetyl-9-(4-(diethylamino)phenyl)-3-oxo-1,3-dihydro-2H-pyrrolo[3,4-b]indolizin-2-yl)propyl)-N^4-(4-(6-methyl-1,2,4,5-tetrazin-3-yl)benzyl)succinimide], which “λem maximum emission wavelength” value ([1]; Table 2) is on record?
The value was 625 nm.

And the “λex largest excitation maxima” value ([1]; Table 2)?
The value was 438 nm.

And the “Φon absolute quantum yield” value ([1]; Table 2)?
The value was 0.028.

What about the “fluorescence amplification rate (on/off)” value ([1]; Table 2) of the same compound?
The value was 3.

What about the “Φoff absolute quantum yield before the reaction with TCO” value ([1]; Table 2) of the same compound?
Its value is 0.013.

And the “fluorescence signal amplification efficiency after the reaction with TCO” value ([1]; Table 2)?
The value was “significantly reduced”.

What about the “K2 second rate constant value” ([2]; Table 2, measured at 20° C.) of the same compound?
Its value is 1.2 m^−1s^−1.

With Cc1nnc(-c2ccn3c4c(c(-c5ccccc5)c3c2)CN(CCCNC(=O)OC(C)(C)C)C4=O)nn1 [Example 1, tert-butyl (3-(7-(6-methyl-1,2,4,5-tetrazin-3-yl)-3-oxo-9-phenyl-1,3-dihydro-2H-pyrrolo[3,4-b]indolizin-2-yl)propyl)carbamate] as the compound, how does the “λem maximum emission wavelength” value ([1]; Table 1) read?
Its value is 484 nm.

And the “λex largest excitation maxima” value ([1]; Table 1)?
Its value is 375 nm.

And the “Φon absolute quantum yield” value ([1]; Table 1)?
Its value is 0.683.

What about the “fluorescence amplification rate (on/off)” value ([1]; Table 1) of the same compound?
Its value is >1,000.

And the “Φoff absolute quantum yield before the reaction with TCO” value ([1]; Table 1)?
Its value is 0.002.

And the “λem maximum emission wavelength” value ([1]; Table 2)?
Its value is 484 nm.

What about the “λex largest excitation maxima” value ([1]; Table 2) of the same compound?
Its value is 375 nm.

What about the “Φon absolute quantum yield” value ([1]; Table 2) of the same compound?
Its value is 0.683.

And the “fluorescence amplification rate (on/off)” value ([1]; Table 2)?
Its value is >1,000.

What about the “Φoff absolute quantum yield before the reaction with TCO” value ([1]; Table 2) of the same compound?
Its value is 0.002.

And the “fluorescence signal amplification efficiency after the reaction with TCO” value ([1]; Table 2)?
Its value is “excellent”.

And the “K2 second rate constant value” ([2]; Table 1, measured at 20° C.)?
Its value is 24 m^−1s^−1.

What about the “K2 second rate constant value” ([2]; Table 2, measured at 20° C.) of the same compound?
The value was 24 m^−1s^−1.

For COc1ccc(-c2c3c(n4ccc(-c5nnc(C)nn5)cc24)C(=O)N(CCCNC(=O)OC(C)(C)C)C3)cc1 [Example 2, tert-butyl (3-(9-(4-methoxyphenyl)-7-(6-methyl-1,2,4,5-tetrazin-3-yl)-3-oxo-1,3-dihydro-2H-pyrrolo[3,4-b]indolizin-2-yl)propyl)carbamate], which “λem maximum emission wavelength” value ([1]; Table 1) is on record?
Its value is 505 nm.

What about the “λex largest excitation maxima” value ([1]; Table 1) of the same compound?
Its value is 383 nm.

What about the “Φon absolute quantum yield” value ([1]; Table 1) of the same compound?
Its value is 0.485.

And the “fluorescence amplification rate (on/off)” value ([1]; Table 1)?
The value was >1,000.

What about the “Φoff absolute quantum yield before the reaction with TCO” value ([1]; Table 1) of the same compound?
The value was 0.001.

And the “K2 second rate constant value” ([2]; Table 1, measured at 20° C.)?
The value was 23 m^−1s^−1.

With Cc1nnc(-c2ccn3c4c(c(-c5ccc(N)cc5)c3c2)CN(CCCNC(=O)OC(C)(C)C)C4=O)nn1 [Example 3, tert-butyl (3-(9-(4-aminophenyl)-7-(6-methyl-1,2,4,5-tetrazin-3-yl)-3-oxo-1,3-dihydro-2H-pyrrolo[3,4-b]indolizin-2-yl)propyl)carbamate] as the compound, how does the “λem maximum emission wavelength” value ([1]; Table 1) read?
The value was 562 nm.

And the “λex largest excitation maxima” value ([1]; Table 1)?
The value was 390 nm.

And the “Φon absolute quantum yield” value ([1]; Table 1)?
The value was 0.064.

And the “fluorescence amplification rate (on/off)” value ([1]; Table 1)?
Its value is greater than 600.

What about the “Φoff absolute quantum yield before the reaction with TCO” value ([1]; Table 1) of the same compound?
Its value is 0.002.

What about the “K2 second rate constant value” ([2]; Table 1, measured at 20° C.) of the same compound?
The value was 22 m^−1s^−1.
